Our source for the T/C values is PubChem BioAssay AID330 (DTP/NCI, 2004).

Several values for one entry are separate records, joined by “and”; a condition that tells them apart may be missing. Equal values may be shown once. Inconclusive results and toxic doses are left out.

The test system of the experiment is P388 leukemia ip, CD2F1 mice, survival T/C. The experiment can be described thus: NCI In Vivo Anticancer Drug Screen. Data for tumor model P388 Leukemia (intraperitoneal) in CD2F1 (CDF1) mice. Particulars: endpoint: median survival time, higher = longer survival. A digest of the protocol: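 Mice carrying the transplanted tumor received test compound or vehicle. Survival was recorded in each group, and the value is the treated-group measurement divided by that of the vehicle-treated control group.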

[1] abbreviates: dose: 25.0 mg/kg/injection, schedule: Q01DX009 (ip), vehicle: saline with Tween-80.
Setting [2] is: dose: 50.0 mg/kg/injection, schedule: Q01DX009 (ip), vehicle: saline with Tween-80.
The mark [3] stands for this setting: dose: 100.0 mg/kg/injection, schedule: Q01DX009 (ip), vehicle: saline with Tween-80.
Where [4] appears, read: dose: 60.0 mg/kg/injection, schedule: Q01DX005 (ip), vehicle: saline with Tween-80.
[5] abbreviates: dose: 120.0 mg/kg/injection, schedule: Q01DX005 (ip), vehicle: saline with Tween-80.
Where [6] appears, read: dose: 240.0 mg/kg/injection, schedule: Q01DX005 (ip), vehicle: saline with Tween-80.
Setting [7] is: dose: 60.0 mg/kg/injection, schedule: Q01DX005 (ip), vehicle: Klucel (hydroxypropylcellulose) (HPC).
[8] abbreviates: dose: 120.0 mg/kg/injection, schedule: Q01DX005 (ip), vehicle: Klucel (hydroxypropylcellulose) (HPC).
Setting [9] is: dose: 240.0 mg/kg/injection, schedule: Q01DX005 (ip), vehicle: Klucel (hydroxypropylcellulose) (HPC).
Where [10] appears, read: dose: 50.0 mg/kg/injection, schedule: Q01DX005 (ip), vehicle: saline with Tween-80.
The mark [11] stands for this setting: dose: 100.0 mg/kg/injection, schedule: Q01DX005 (ip), vehicle: saline with Tween-80.
[12] abbreviates: dose: 200.0 mg/kg/injection, schedule: Q01DX005 (ip), vehicle: saline with Tween-80.
Where [13] appears, read: dose: 200.0 mg/kg/injection, schedule: Q01DX009 (ip), vehicle: saline with Tween-80.

With `CC(C)=CCN1C(=O)c2ccccc2C1=O`, the T/C reads like this: under setting [1], 109 % of control; under setting [2], 109 % of control; under setting [3], 104 % of control; (dose: 100.0 mg/kg/injection, schedule: Q01DX009 (ip), vehicle: saline) 94 % of control; (dose: 100.0 mg/kg/injection, schedule: Q01DX009 (ip), vehicle: suspension in saline) 98 % of control and 91 % of control; (dose: 200.0 mg/kg/injection, schedule: Q01DX009 (ip), vehicle: saline) 102 % of control. In addition, the T/C is 100 % of control and 103 % of control (dose: 200.0 mg/kg/injection, schedule: Q01DX009 (ip), vehicle: suspension in saline); 120 % of control (dose: 400.0 mg/kg/injection, schedule: Q01DX009 (ip), vehicle: saline); 110 % of control and 91 % of control (dose: 400.0 mg/kg/injection, schedule: Q01DX009 (ip), vehicle: suspension in saline).

On to `CC1=C[C@H]2[C@@]3(O)[C@H](C)[C@@H](OC(=O)c4ccccc4)[C@]4(OC(=O)c5ccccc5)[C@H]([C@@H]3C=C(COC(=O)c3ccccc3)C[C@]2(O)C1=O)C4(C)C`, for which the T/C runs as follows: (dose: 20.0 micrograms/kg/injection, schedule: Q01DX009 (ip), vehicle: saline + alcohol) 100 % of control; (dose: 40.0 micrograms/kg/injection, schedule: Q01DX009 (ip), vehicle: saline + alcohol) 96 % of control; (dose: 80.0 micrograms/kg/injection, schedule: Q01DX009 (ip), vehicle: saline + alcohol) 102 % of control; (dose: 160.0 micrograms/kg/injection, schedule: Q01DX009 (ip), vehicle: saline + alcohol) 100 % of control; (dose: 320.0 micrograms/kg/injection, schedule: Q01DX009 (ip), vehicle: saline + alcohol) 94 % of control.

For `COc1cc(/C=C2/Cc3ccccc3C2=O)ccc1O`, the T/C (dose: 60.0 mg/kg/injection, schedule: Q01DX005 (ip), vehicle: saline) is 106 % of control; the T/C (dose: 120.0 mg/kg/injection, schedule: Q01DX005 (ip), vehicle: saline) was 106 % of control; the T/C (dose: 240.0 mg/kg/injection, schedule: Q01DX005 (ip), vehicle: saline) was 96 % of control.

In the case of `C=C(CC1(O)C(C2COC(C)(C)O2)OC2OC(C)(C)OC21)C(=O)OCC` (stereo unspecified), the T/C is 96 % of control (dose: 50.0 mg/kg/injection, schedule: Q01DX005 (ip), vehicle: saline); 98 % of control (dose: 100.0 mg/kg/injection, schedule: Q01DX005 (ip), vehicle: saline); 105 % of control (dose: 200.0 mg/kg/injection, schedule: Q01DX005 (ip), vehicle: saline).

Consider `C=CCc1cc(OC)c(OCC=O)c(OC)c1`, for which the T/C (dose: 100.0 mg/kg/injection, schedule: Q04DX002 (ip), vehicle: Klucel (hydroxypropylcellulose) (HPC)) was 99 % of control and the T/C (dose: 200.0 mg/kg/injection, schedule: Q04DX002 (ip), vehicle: Klucel (hydroxypropylcellulose) (HPC)) is 96 % of control.

For the compound `Cc1cccc(C)c1Nc1nnc(-c2ccccc2)s1`, the T/C is, setting by setting: (dose: 15.0 mg/kg/injection, schedule: Q01DX005 (ip), vehicle: saline with Tween-80) 104 % of control; (dose: 30.0 mg/kg/injection, schedule: Q01DX005 (ip), vehicle: saline with Tween-80) 103 % of control; under setting [4], 94 % of control.

In the case of `COc1ccc(/C=C2/C(=O)ON=C2C)cc1OC`, the T/C runs as follows: under setting [4], 99 % of control; under setting [5], 96 % of control; under setting [6], 96 % of control.

Turning to `COc1ccc(C2=NC(c3ccccc3)NC(c3ccccc3)/C2=C/c2ccccc2)cc1` (stereo unspecified), the T/C is, setting by setting: (dose: 6.25 mg/kg/injection, schedule: Q01DX009 (ip), vehicle: saline with Tween-80) 100 % of control; (dose: 12.5 mg/kg/injection, schedule: Q01DX009 (ip), vehicle: saline with Tween-80) 100 % of control; under setting [1], 105 % of control; under setting [2], 100 % of control.

Regarding `C=Cn1c([N+](=O)[O-])cnc1/C=C/c1ccc(C(=O)N(CCCC)CCCC)cc1`, the T/C runs as follows: (dose: 100.0 mg/kg/injection, schedule: Q04DX002 (ip), vehicle: saline with Tween-80) 100 % of control; (dose: 200.0 mg/kg/injection, schedule: Q04DX002 (ip), vehicle: saline with Tween-80) 100 % of control; (dose: 400.0 mg/kg/injection, schedule: Q04DX002 (ip), vehicle: saline with Tween-80) 89 % of control.

Take `CC1(C)SC(C)(c2ccsc2)N(c2nccs2)C1=O` (stereo unspecified): the T/C was 97 % of control under setting [7], 96 % of control under setting [8] and 94 % of control under setting [9].

Take `CCCC1(CC)CNC(=O)NC1=O` (stereo unspecified): the T/C is, setting by setting: under setting [10], 100 % of control; under setting [11], 93 % of control; under setting [12], 99 % of control.

As for `COC(=O)C1(N2CCOCC2)CCC([C@@H](c2ccccc2)C(C)[N+](=O)[O-])C1` (stereo partly specified), the T/C under setting [7] was 100 % of control, the T/C under setting [8] was 98 % of control and the T/C under setting [9] is 99 % of control.

With `Cc1ccc(N2CCN(C(=O)C3=Cc4ccccc4OC3)CC2)cc1C`, the T/C (dose: 100.0 mg/kg/injection, schedule: Q04DX003 (ip), vehicle: Klucel (hydroxypropylcellulose) (HPC)) is 100 % of control and the T/C (dose: 200.0 mg/kg/injection, schedule: Q04DX003 (ip), vehicle: Klucel (hydroxypropylcellulose) (HPC)) was 88 % of control.

As to `Cc1ccc(C(C)(C)O)cc1O`, the T/C reads like this: (dose: 8.75 mg/kg/injection, schedule: Q01DX005 (ip), vehicle: Klucel + Tween-80) 100 % of control; (dose: 17.5 mg/kg/injection, schedule: Q01DX005 (ip), vehicle: Klucel + Tween-80) 100 % of control; (dose: 35.0 mg/kg/injection, schedule: Q01DX005 (ip), vehicle: Klucel + Tween-80) 103 % of control; (dose: 70.0 mg/kg/injection, schedule: Q01DX005 (ip), vehicle: Klucel + Tween-80) 103 % of control.

On to `CC(=O)c1c(O)c(C)c(O)c2c1OC1=CC(=O)/C(=C(/C)N)C(=O)C12C` (stereo unspecified), for which the T/C reads like this: (dose: 6.25 mg/kg/injection, schedule: Q01DX009 (ip), vehicle: gum acacia) 107 % of control and 112 % of control; (dose: 12.5 mg/kg/injection, schedule: Q01DX009 (ip), vehicle: gum acacia) 100 % of control and 105 % of control; (dose: 25.0 mg/kg/injection, schedule: Q01DX009 (ip), vehicle: gum acacia) 102 % of control and 109 % of control; (dose: 50.0 mg/kg/injection, schedule: Q01DX009 (ip), vehicle: gum acacia) 100 % of control and 86 % of control; (dose: 100.0 mg/kg/injection, schedule: Q01DX009 (ip), vehicle: gum acacia) 100 % of control and 106 % of control; (dose: 200.0 mg/kg/injection, schedule: Q01DX009 (ip), vehicle: gum acacia) 102 % of control and 110 % of control.

In the case of `COC(=O)CCC(C)C1CCC2C3=CC(=O)C4CC(OC(C)=O)CCC4(C)C3CC(OC(C)=O)C21C` (stereo unspecified), the T/C is 109 % of control under setting [2], 94 % of control under setting [3] and 87 % of control under setting [13].

Regarding `CSC1=NC(C)(C)N=C(Oc2cc(Cl)cc(Cl)c2)N1`, the T/C runs as follows: under setting [4], 89 % of control; under setting [5], 94 % of control; under setting [6], 92 % of control.

Regarding `C=CC12CCC(CC1)n1c(=O)n(C)c(=O)n12`, the T/C is 99 % of control under setting [10], 103 % of control under setting [11] and 100 % of control under setting [12].

For `COc1ccc2c(c1)OCCN(C)C2c1ccccc1` (stereo unspecified), the T/C is, setting by setting: under setting [10], 97 % of control; under setting [11], 99 % of control; under setting [12], 99 % of control.

For the compound `NC(=S)N/N=C/c1nccc2ccccc12`, the T/C was 153 % of control (dose: 9.4 mg/kg/injection, schedule: Q01DX009 (ip), vehicle: saline with Tween-80); 150 % of control (dose: 37.5 mg/kg/injection, schedule: Q01DX009 (ip), vehicle: saline); 150 % of control (dose: 75.0 mg/kg/injection, schedule: Q01DX009 (ip), vehicle: saline); 152 % of control under setting [3]; 98 % of control under setting [13].

`CCOC(=Nc1ccc([N+](=O)[O-])cc1)SC(c1ccccc1)(c1ccccc1)c1ccccc1`: the T/C is, setting by setting: under setting [10], 103 % of control; under setting [11], 91 % of control; under setting [12], 88 % of control.

For `CCCCCCC(/C=C/c1c(Cl)cccc1Cl)=N\O`, the T/C was 98 % of control under setting [1]; 100 % of control under setting [2]; 99 % of control and 109 % of control under setting [3]; 101 % of control under setting [13]; 118 % of control (dose: 400.0 mg/kg/injection, schedule: Q01DX009 (ip), vehicle: saline with Tween-80).
